According to patent publication US20020137929A1, “1 - (3-heterocyclylphenyl) isothiourea, -isourea, -guanidine and -amidine herbicidal agents” (Intellectual Property Department, BASF Aktiengesellschaft, priority 1998, published 2002):

How the values were obtained:
[1] = system: CHEAL (Lambsquarters, Common); test: Preemergence herbicidal evaluation; type: in vivo, Chenopodium album; settings: rated 4-5 weeks after treatment; for CHEAL rating: preemergence, 0-9 scale
Method in brief: (§1)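 Herbicidal effect scored visually, 0-9, at 4 to 5 weeks against a control; compound applied preemergence by aqueous acetone spray to seeded soil at about 0.0156 to 0.500 kg/ha.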

ORYSAT (Rice, Tebonnet) = test: Preemergence herbicidal evaluation; type: in vivo, Oryza sativa, (L.) Tebonnet; settings: rated 4-5 weeks after treatment; for ORYSAT rating: preemergence, 0-9 scale
Method in brief: as §1

[2] = system: TRZAWR (Wheat, Winter, cv Riband); test: Postemergence herbicidal evaluation; type: in vivo, Triticum aestivum; settings: for TRZAWR herbicidal rating / herbicidal rating TRZAWR: postemergence
Method in brief: (§2)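 Young plants, roughly two weeks from seeding, receive the active ingredient as a sprayed dispersion (acetone/water 50/50, 0.5% TWEEN 20) at 40 psi. Doses span about 0.0156 to 0.500 kg/ha. A visual score from 0 to 9 compares treated with control plants four to five weeks on.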

MOOVA (Monochoria) = test: Postemergence weed control under flooded paddy conditions; type: in vivo, Monochoria vaginalis; settings: postemergence weeds
Method in brief: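 Herbicidal effect is judged by eye on a 0–9 scale versus control, 3–4 weeks after dosing. Dosing is into flood water kept 1.5–3 cm over the soil, at about 0.0313–0.500 kg/ha in aqueous/acetone 50/50 v/v, on 3–5 cm weeds and 1.5–2.5-leaf rice seedlings.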

[3] = system: CHEAL (Lambsquarters, Common); test: Postemergence herbicidal evaluation; type: in vivo, Chenopodium album; settings: for CHEAL herbicidal rating / herbicidal rating CHEAL: postemergence
Method in brief: as §2

CASOB (Sicklepod) = test: Postemergence herbicidal evaluation; type: in vivo, Cassia obtusifolia; settings: for CASOB herbicidal rating / herbicidal rating CASOB: postemergence
Method in brief: as §2

[4] = Rate 0.0313 kg/ha, rated 3 to 4 weeks after treatment
[5] = Rate 0.0625 kg/ha, rated 3 to 4 weeks after treatment
[6] = Rate 0.1250 kg/ha, rated 3 to 4 weeks after treatment
[7] = Rate 0.2500 kg/ha, rated 3 to 4 weeks after treatment

With `C=CCN1C(=O)C(CC(=O)NOC)SC1=Nc1cc(-n2c(=O)cc(C(F)(F)F)n(C)c2=O)c(F)cc1Cl` (stereo not shown) [Compound 85] as the compound, how does the CHEAL rating ([1]; 0.0156 kg/ha) read?
Its CHEAL rating is 3.0.

And the CHEAL rating ([1]; 0.0313 kg/ha)?
Its CHEAL rating is 9.0.

What about the CHEAL rating ([1]; 0.0625 kg/ha) of the same compound?
Its CHEAL rating is 9.0.

What about the CHEAL rating ([1]; 0.1250 kg/ha) of the same compound?
Its CHEAL rating is 9.0.

And the CHEAL rating ([1]; 0.2500 kg/ha)?
The CHEAL rating was 9.0.

What about the CHEAL rating ([1]; 0.5000 kg/ha) of the same compound?
The CHEAL rating was 9.0.

What about the ORYSAT rating (ORYSAT (Rice, Tebonnet); 0.0156 kg/ha) of the same compound?
The ORYSAT rating was 0.0.

And the ORYSAT rating (ORYSAT (Rice, Tebonnet); 0.0313 kg/ha)?
Its ORYSAT rating is 0.0.

And the ORYSAT rating (ORYSAT (Rice, Tebonnet); 0.0625 kg/ha)?
Its ORYSAT rating is 0.0.

And the ORYSAT rating (ORYSAT (Rice, Tebonnet); 0.1250 kg/ha)?
Its ORYSAT rating is 0.0.

What about the ORYSAT rating (ORYSAT (Rice, Tebonnet); 0.2500 kg/ha) of the same compound?
The ORYSAT rating was 2.0.

What about the ORYSAT rating (ORYSAT (Rice, Tebonnet); 0.5000 kg/ha) of the same compound?
The ORYSAT rating was 3.0.

And the TRZAWR herbicidal rating ([2]; rate 0.0156 kg/ha)?
The TRZAWR herbicidal rating was 3.0.

What about the TRZAWR herbicidal rating ([2]; rate 0.0313 kg/ha) of the same compound?
Its TRZAWR herbicidal rating is 3.5.

And the TRZAWR herbicidal rating ([2]; rate 0.0625 kg/ha)?
Its TRZAWR herbicidal rating is 4.5.

And the TRZAWR herbicidal rating ([2]; rate 0.1250 kg/ha)?
The TRZAWR herbicidal rating was 5.0.

And the “Herbicidal rating MOOVA” value (MOOVA (Monochoria); [4])?
The value was 9.0.

And the “Herbicidal rating MOOVA” value (MOOVA (Monochoria); [5])?
Its value is 9.0.

And the “Herbicidal rating MOOVA” value (MOOVA (Monochoria); [6])?
Its value is 9.0.

What about the “Herbicidal rating MOOVA” value (MOOVA (Monochoria); [7]) of the same compound?
The value was 9.0.

And the CHEAL herbicidal rating ([3]; rate 0.0156 kg/ha)?
The CHEAL herbicidal rating was 2.0.

And the CHEAL herbicidal rating ([3]; rate 0.0313 kg/ha)?
The CHEAL herbicidal rating was 4.0.

What about the CHEAL herbicidal rating ([3]; rate 0.0625 kg/ha) of the same compound?
The CHEAL herbicidal rating was 4.0.

And the CHEAL herbicidal rating ([3]; rate 0.1250 kg/ha)?
The CHEAL herbicidal rating was 9.0.

And the CASOB herbicidal rating (CASOB (Sicklepod); rate 0.0156 kg/ha)?
The CASOB herbicidal rating was 0.0.

What about the CASOB herbicidal rating (CASOB (Sicklepod); rate 0.0313 kg/ha) of the same compound?
Its CASOB herbicidal rating is 0.0.

And the CASOB herbicidal rating (CASOB (Sicklepod); rate 0.0625 kg/ha)?
Its CASOB herbicidal rating is 0.0.

And the CASOB herbicidal rating (CASOB (Sicklepod); rate 0.1250 kg/ha)?
Its CASOB herbicidal rating is 2.0.

Which results are given for `CN1C(=O)C(CC(N)=O)SC1=Nc1cc(-n2c(=O)cc(C(F)(F)F)n(C)c2=O)c(F)cc1Cl` (stereo not shown) [Compound 92, 2-{{2-Chloro-5-[3,6-dihydro-3-methyl-2,6-dioxo-4-(trifluoromethyl)-1(2H)-pyrimidinyl]-4-fluorophenyl}imino}-3-methyl-4-oxo-5-thiazolidineacetamide]?
CHEAL rating ([1]; 0.0156 kg/ha): 9.0; CHEAL rating ([1]; 0.0313 kg/ha): 9.0; CHEAL rating ([1]; 0.0625 kg/ha): 9.0; CHEAL rating ([1]; 0.1250 kg/ha): 9.0; CHEAL rating ([1]; 0.2500 kg/ha): 9.0; ORYSAT rating (ORYSAT (Rice, Tebonnet); 0.0156 kg/ha): 0.0; ORYSAT rating (ORYSAT (Rice, Tebonnet); 0.0313 kg/ha): 0.0; ORYSAT rating (ORYSAT (Rice, Tebonnet); 0.0625 kg/ha): 0.0; ORYSAT rating (ORYSAT (Rice, Tebonnet); 0.1250 kg/ha): 0.0; ORYSAT rating (ORYSAT (Rice, Tebonnet); 0.2500 kg/ha): 5.0; TRZAWR herbicidal rating ([2]; rate 0.0158 kg/ha): 5.0; TRZAWR herbicidal rating ([2]; rate 0.0315 kg/ha): 6.0; TRZAWR herbicidal rating ([2]; rate 0.0630 kg/ha): 6.5; Herbicidal rating MOOVA (MOOVA (Monochoria); [4]): 9.0; Herbicidal rating MOOVA (MOOVA (Monochoria); [5]): 9.0; Herbicidal rating MOOVA (MOOVA (Monochoria); [6]): 9.0; Herbicidal rating MOOVA (MOOVA (Monochoria); [7]): 9.0; CHEAL herbicidal rating ([3]; rate 0.0158 kg/ha): 2.0; CHEAL herbicidal rating ([3]; rate 0.0315 kg/ha): 9.0; CHEAL herbicidal rating ([3]; rate 0.0630 kg/ha): 9.0; CASOB herbicidal rating (CASOB (Sicklepod); rate 0.0158 kg/ha): 3.0; CASOB herbicidal rating (CASOB (Sicklepod); rate 0.0315 kg/ha): 5.0; CASOB herbicidal rating (CASOB (Sicklepod); rate 0.0630 kg/ha): 9.0

What does the source list for `CCOC(=O)CN1C(=O)C(CC(=O)NS(=O)(=O)c2ccccc2)SC1=Nc1cc(-n2c(=O)cc(C(F)(F)F)n(C)c2=O)c(F)cc1Cl` (stereo not shown) [Compound 100, Ethyl 2-{{2-chloro-5-[3,6-dihydro-3-methyl-2,6-dioxo-4-(trifluoromethyl)-1(2H)-pyrimidinyl]-4-fluorophenyl}imino}-4-oxo-5-{[(phenylsulfonyl)-carbamoyl]methyl]-3-thiazolidineacetate]?
CHEAL rating ([1]; 0.0313 kg/ha): 9.0; CHEAL rating ([1]; 0.0625 kg/ha): 9.0; CHEAL rating ([1]; 0.1250 kg/ha): 9.0; CHEAL rating ([1]; 0.2500 kg/ha): 9.0; CHEAL rating ([1]; 0.5000 kg/ha): 9.0; ORYSAT rating (ORYSAT (Rice, Tebonnet); 0.0313 kg/ha): 0.0; ORYSAT rating (ORYSAT (Rice, Tebonnet); 0.0625 kg/ha): 0.0; ORYSAT rating (ORYSAT (Rice, Tebonnet); 0.1250 kg/ha): 0.0; ORYSAT rating (ORYSAT (Rice, Tebonnet); 0.2500 kg/ha): 0.0; ORYSAT rating (ORYSAT (Rice, Tebonnet); 0.5000 kg/ha): 1.0; herbicidal rating TRZAWR ([2]; rate 0.0156 kg/ha): 3.0; herbicidal rating TRZAWR ([2]; rate 0.0313 kg/ha): 4.0; herbicidal rating TRZAWR ([2]; rate 0.0625 kg/ha): 3.5; herbicidal rating TRZAWR ([2]; rate 0.1250 kg/ha): 4.0; Herbicidal rating MOOVA (MOOVA (Monochoria); [4]): 9.0; Herbicidal rating MOOVA (MOOVA (Monochoria); [5]): 9.0; Herbicidal rating MOOVA (MOOVA (Monochoria); [6]): 9.0; Herbicidal rating MOOVA (MOOVA (Monochoria); [7]): 9.0; Herbicidal rating MOOVA (MOOVA (Monochoria); Rate 0.5000 kg/ha, rated 3 to 4 weeks after treatment): 9.0; herbicidal rating CHEAL ([3]; rate 0.0156 kg/ha): 5.0; herbicidal rating CHEAL ([3]; rate 0.0313 kg/ha): 7.0; herbicidal rating CHEAL ([3]; rate 0.0625 kg/ha): 7.0; herbicidal rating CHEAL ([3]; rate 0.1250 kg/ha): 9.0; herbicidal rating CASOB (CASOB (Sicklepod); rate 0.0156 kg/ha): 2.0; herbicidal rating CASOB (CASOB (Sicklepod); rate 0.0313 kg/ha): 7.0; herbicidal rating CASOB (CASOB (Sicklepod); rate 0.0625 kg/ha): 6.0; herbicidal rating CASOB (CASOB (Sicklepod); rate 0.1250 kg/ha): 9.0

Which results are given for `C=CCN1C(=O)C(CC(=O)Nc2ccccc2)SC1=Nc1cc(-n2c(=O)cc(C(F)(F)F)n(C)c2=O)c(F)cc1Cl` (stereo not shown) [Compound 44, 3-Allyl-2-{{2-chloro-5-[3,6-dihydro-3-methyl-2,6-dioxo-4-(trifluoromethyl)-1(2H)-pyrimidinyl]-4-fluorophenyl}imino}-4-oxo-5-thiazolidineacetanilide]?
Preemergence herbicidal rating CHEAL ([1]; rate 0.0156 kg/ha): 3.0; Preemergence herbicidal rating CHEAL ([1]; rate 0.0313 kg/ha): 5.0; Preemergence herbicidal rating CHEAL ([1]; rate 0.0625 kg/ha): 4.0; Preemergence herbicidal rating CHEAL ([1]; rate 0.1250 kg/ha): 9.0; Preemergence herbicidal rating CHEAL ([1]; rate 0.2500 kg/ha): 9.0; Preemergence herbicidal rating CHEAL ([1]; rate 0.5000 kg/ha): 9.0; Preemergence herbicidal rating ORYSAT (ORYSAT (Rice, Tebonnet); rate 0.0156 kg/ha): 0.0; Preemergence herbicidal rating ORYSAT (ORYSAT (Rice, Tebonnet); rate 0.0313 kg/ha): 0.0; Preemergence herbicidal rating ORYSAT (ORYSAT (Rice, Tebonnet); rate 0.0625 kg/ha): 0.0; Preemergence herbicidal rating ORYSAT (ORYSAT (Rice, Tebonnet); rate 0.1250 kg/ha): 0.0; Preemergence herbicidal rating ORYSAT (ORYSAT (Rice, Tebonnet); rate 0.2500 kg/ha): 0.0; Preemergence herbicidal rating ORYSAT (ORYSAT (Rice, Tebonnet); rate 0.5000 kg/ha): 0.0; Postemergence herbicidal rating TRZAWR ([2]; Rate 0.0156 kg/ha): 3.0; Postemergence herbicidal rating TRZAWR ([2]; Rate 0.0313 kg/ha): 4.0; Postemergence herbicidal rating TRZAWR ([2]; Rate 0.0625 kg/ha): 4.0; Postemergence herbicidal rating TRZAWR ([2]; Rate 0.1250 kg/ha): 4.0; Herbicidal rating MOOVA (MOOVA (Monochoria); rate 0.0313 kg/ha, 3-4 weeks after treatment): 4.0; Herbicidal rating MOOVA (MOOVA (Monochoria); rate 0.0625 kg/ha, 3-4 weeks after treatment): 4.0; Herbicidal rating MOOVA (MOOVA (Monochoria); rate 0.1250 kg/ha, 3-4 weeks after treatment): 7.0; Herbicidal rating MOOVA (MOOVA (Monochoria); rate 0.2500 kg/ha, 3-4 weeks after treatment): 9.0; Postemergence herbicidal rating CHEAL ([3]; Rate 0.0156 kg/ha): 1.0; Postemergence herbicidal rating CHEAL ([3]; Rate 0.0313 kg/ha): 4.0; Postemergence herbicidal rating CHEAL ([3]; Rate 0.0625 kg/ha): 5.0; Postemergence herbicidal rating CHEAL ([3]; Rate 0.1250 kg/ha): 9.0; Postemergence herbicidal rating CASOB (CASOB (Sicklepod); Rate 0.0156 kg/ha): 0.0; Postemergence herbicidal rating CASOB (CASOB (Sicklepod); Rate 0.0313 kg/ha): 0.0; Postemergence herbicidal rating CASOB (CASOB (Sicklepod); Rate 0.0625 kg/ha): 2.0; Postemergence herbicidal rating CASOB (CASOB (Sicklepod); Rate 0.1250 kg/ha): 2.0
